According to US20220411419A1, “SMALL MOLECULE MODULATORS OF MHC-I” (RetroVirox, Inc., priority 2018, published 2022):

Columns and labels:
in vitro = conditions: human, uninfected SupT1 cells
[1] = tested on: MHC-I surface expression in uninfected SupT1 cells; assay: Increase of MHC-I surface expression in uninfected SupT1 cells (mean-MHC-I EC50, FIG. 6A); type: cell-based; conditions: Homo sapiens, SUP-T1, 24 h with compound, read-out: EC50 for MHC-I increased surface expression
Protocol: In some instances, the effect of small molecules in modulation of surface MHC-I was monitored in uninfected (rather than HIV-infected) Sup-T1 cells (FIG. 6A). In these experiments uninfected SupT1 cells were incubated with the compounds for 24 h and then the increase in MHC-I surface expression was monitored by staining cells with the biotinylated HLA-A2/28 antibody (One Lambda, clone BIH0037), washed and then incubated with streptavidin conjugated with APC (Streptavidin APC, EBiosciences, 17-4317) to reveal the anti-HLA-A2 bound antibody. After washing the cells again they were fixed with 0.5% paraformaldehyde and submitted to flow cytometry to determine the levels of MHC-I surface expression (APC fluorescence) in live cells (as estimated by FS/SS in these cells). […] From these assays “mean-MHC-I” EC50 values were generated to indicate the concentration of compound that augments the mean surface levels of MHC-I to 50% of the highest levels accomplished by the compound, as compared to cells treated with vehicle alone. […] Therefore, both assays: inhibition of MHC-I downmodulation in HIV infected SupT1 cells, or increase in surface MHC-I in uninfected SupT1 cells, were indistinctively used to monitor the potency of the compounds to modulate surface expression of MHC-I in SupT1 cells.
Table 7 show the activity of selected compounds utilizing the assay in which the increase of MHC-I surface expression in uninfected SupT1 cells was evaluated, as shown in FIG. 6A. The EC50 for MHC-I increased surface expression was determined using the methods described in Example 2 and illustrated in FIG. 6A.

[2] = tested on: downmodulation of MHC-I molecules expressed on the surface of HIV infected SupT1 cells; assay: cells; conditions: for EC50: Human immunodeficiency virus 1, SUP-T1, read-out: EC50 for inhibition of MHC-I downmodulation utilizing the R1 parameter; for activity at 100 µM: Human immunodeficiency virus 1, SUP-T1, read-out: R1 @ 100 μM (R1 value for MHC-I downmodulation as % of the vehicle control)

SMILES: CC1(C)Cc2cccc(OC(Cc3ccccc3)C(=O)Nc3nc4c(s3)CCCC4)c2O1 (racemic) [Compound 171, (±)-2-((2,2-Dimethyl-2,3-dihydrobenzofuran-7-yl)oxy)-3-phenyl-N-(4,5,6,7-tetrahydrobenzo[d]thiazol-2-yl)propanamide]
- CC50 (in vitro): > 125 µM
- EC50 [1]: 6.2 µM

SMILES: Cc1nc(NC(=O)COc2cccc3c2OC(C)(C)C3)ccc1C1CC1 [Compound 167, N-(5-Cyclopropyl-6-methylpyridin-2-yl)-2-((2,2-dimethyl-2,3-dihydrobenzofuran-7-yl)oxy)acetamide]
- CC50 (in vitro): > 125 µM
- EC50 [1]: 0.47 µM

SMILES: Cc1cccnc1CN(C(=O)COc1cccc2c1OC(C)(C)C2)c1ccc(C2CC2)c(C)n1 [Compound 170, N-(5-Cyclopropyl-6-methylpyridin-2-yl)-2-((2,2-dimethyl-2,3-dihydrobenzofuran-7-yl)oxy)-N-((3-methylpyridin-2-yl)methyl)acetamide]
- CC50 (in vitro): > 125 µM
- EC50 [1]: 1 µM

SMILES: CC1(C)Cc2cc(C(F)(F)F)cc(OCC(=O)Nc3nc4c(s3)CCCC4)c2O1 [Compound 173, 2-((2,2-Dimethyl-5-(trifluoromethyl)-2,3-dihydrobenzofuran-7-yl)oxy)-N-(4,5,6,7-tetrahydrobenzo[d]thiazol-2-yl)acetamide]
- CC50 (in vitro): > 125 µM
- EC50 [1]: 2.5 µM

SMILES: CC1(C)Cc2cccc(OCC(=O)N(CC(F)(F)F)c3nc4c(s3)COCC4)c2O1 [Compound 166, N-(6,7-Dihydro-4H-pyrano[4,3-d]thiazol-2-yl)-2-((2,2-dimethyl-2,3-dihydrobenzofuran-7-yl)oxy)-N-(2,2,2-trifluoroethyl)acetamide]
- CC50 (in vitro): > 125 µM
- EC50 [1]: 0.2 µM

SMILES: Cc1nc(NC(=O)C(Cc2ccccc2)Oc2cccc3c2OC(C)(C)C3)ccc1C1CC1 (racemic) [Compound 172, (±)-N-(5-Cyclopropyl-6-methylpyridin-2-yl)-2-((2,2-dimethyl-2,3-dihydrobenzofuran-7-yl)oxy)-3-phenylpropanamide]
- CC50 (in vitro): > 125 µM
- EC50 [1]: 8.4 µM

SMILES: O=C(COc1cccc2[nH]ccc12)N(CC(F)(F)F)c1nc2c(s1)CCCC2 [Compound 165, 2-((1H-Indol-4-yl)oxy)-N-(4,5,6,7-tetrahydrobenzo[d]thiazol-2-yl)-N-(2,2,2-trifluoroethyl)acetamide]
- CC50 (in vitro): > 125 µM
- EC50 [1]: 1 µM

SMILES: Cc1cc(C)nc(NC(=O)COc2cccc3c2OC(C)(C)C3)c1 [Compound 169, 2-((2,2-Dimethyl-2,3-dihydrobenzofuran-7-yl)oxy)-N-(4,6-dimethylpyridin-2-yl)acetamide]
- CC50 (in vitro): > 125 µM
- EC50 [1]: > 25 µM

SMILES: Cc1nc(NC(=O)COc2cccc3c2OC(C)(C)C3)ccc1C#N [Compound 168, N-(5-Cyano-6-methylpyridin-2-yl)-2-((2,2-dimethyl-2,3-dihydrobenzofuran-7-yl)oxy)acetamide]
- CC50 (in vitro): > 125 µM
- EC50 [1]: > 25 µM

SMILES: Cc1csc(NC(=O)COc2ccccc2OCc2ccccc2)n1 [Compound 141, 2-(2-(Benzyloxy)phenoxy)-N-(4-methylthiazol-2-yl)acetamide]
- CC50 at 48 h (in vitro): > 100 µM
- EC50 [2]: 1.84 µM

SMILES: CC1(C)Cc2cccc(OCC(=O)Nc3nc4c(-c5ccc[nH]5)cccc4s3)c2O1 [Compound 102, N-(4-(1H-Pyrrol-2-yl)benzo[d]thiazol-2-yl)-2-((2,2-dimethyl-2,3-dihydrobenzofuran-7-yl)oxy)acetamide]
- CC50 (in vitro): > 100 µM
- CC50 at 48 h (in vitro): > 100 µM
- EC50 [2]: > 25 µM
- activity at 100 µM [2]: 20%

SMILES: CC(C)c1ccc(NC(=O)COc2cccc3c2OC(C)(C)C3)nn1 [Compound 87, 2-((2,2-Dimethyl-2,3-dihydrobenzofuran-7-yl)oxy)-N-(6-isopropylpyridazin-3-yl)acetamide]
- CC50 at 48 h (in vitro): > 100 µM
- EC50 [2]: 0.58 µM

SMILES: CC1(C)Cc2cccc(OCC(=O)N(CC(F)(F)F)c3nc4c(s3)CCCC4)c2O1 [Compound 164, 2-((2,2-Dimethyl-2,3-dihydrobenzofuran-7-yl)oxy)-N-(4,5,6,7-tetrahydrobenzo[d]thiazol-2-yl)-N-(2,2,2-trifluoroethyl)acetamide]
- CC50 (in vitro): > 125 µM
- EC50 [1]: 0.026 µM

SMILES: CCc1ccc(NC(=O)COc2cccc3c2OC(C)(C)C3)nc1C [Compound 75, 2-((2,2-Dimethyl-2,3-dihydrobenzofuran-7-yl)oxy)-N-(5-ethyl-6-methylpyridin-2-yl)acetamide]
- CC50 at 48 h (in vitro): 120 µM
- EC50 [2]: 0.21 µM

SMILES: Cc1nccc(NC(=O)COc2cccc3c2OC(C)(C)C3)n1 [Compound 29, 2-((2,2-Dimethyl-2,3-dihydrobenzofuran-7-yl)oxy)-N-(2-methylpyrimidin-4-yl)acetamide]
- CC50 (in vitro): > 100 µM
- CC50 at 48 h (in vitro): > 100 µM
- EC50 [2]: > 25 µM
- activity at 100 µM [2]: 65%

SMILES: CN(C(=O)COc1cccc2c1OC(C)(C)C2)c1nc2c(s1)CCC2 [Compound 162, N-(5,6-Dihydro-4H-cyclopenta[d]thiazol-2-yl)-2-((2,2-dimethyl-2,3-dihydrobenzofuran-7-yl)oxy)-N-methylacetamide]
- CC50 at 48 h (in vitro): 124 µM
- EC50 [2]: 0.027 µM

SMILES: CC1(C)Cc2cccc(CCC(=O)N(Cc3ccccn3)c3nc4c(s3)CCCC4)c2O1 [Compound 104, 3-(2,2-Dimethyl-2,3-dihydrobenzofuran-7-yl)-N-(pyridin-2-ylmethyl)-N-(4,5,6,7-tetrahydrobenzo[d]thiazol-2-yl)propanamide]
- CC50 at 48 h (in vitro): > 125 µM
- EC50 [2]: 1.1 µM

SMILES: CN(C(=O)COc1ccccc1OC(F)(F)F)c1nc2c(s1)CCCC2 [Compound 161, N-Methyl-N-(4,5,6,7-tetrahydrobenzo[d]thiazol-2-yl)-2-(2-(trifluoromethoxy)phenoxy)acetamide]
- CC50 at 48 h (in vitro): > 125 µM
- EC50 [2]: 0.15 µM

SMILES: CC1(C)Cc2cccc(OCC(=O)Nc3ccc(Cl)nn3)c2O1 [Compound 24, N-(6-Chloropyridazin-3-yl)-2-((2,2-dimethyl-2,3-dihydrobenzofuran-7-yl)oxy)acetamide]
- CC50 at 48 h (in vitro): > 100 µM
- EC50 [2]: 4.5 µM

SMILES: Cc1csc(N(C(=O)COc2cccc3c2OC(C)(C)C3)c2cncnc2)n1 [Compound 97, 2-((2,2-Dimethyl-2,3-dihydrobenzofuran-7-yl)oxy)-N-(4-methylthiazol-2-yl)-N-(pyrimidin-5-yl)acetamide]
- CC50 (in vitro): > 125 µM
- CC50 at 48 h (in vitro): > 125 µM
- EC50 [2]: > 25 µM
- activity at 100 µM [2]: 5.4%

SMILES: Cc1nc(NC(=O)COc2cc(C(F)(F)F)cc3c2OC(C)(C)C3)ccc1C1CC1 [Compound 174, N-(5-Cyclopropyl-6-methylpyridin-2-yl)-2-((2,2-dimethyl-5-(trifluoromethyl)-2,3-dihydrobenzofuran-7-yl)oxy)acetamide]
- CC50 (in vitro): > 125 µM
- EC50 [1]: 2.5 µM

SMILES: Cc1ccnc(C)c1OCC(=O)N(C)c1nc2c(s1)CCCC2 [Compound 136, 2-((2,4-Dimethylpyridin-3-yl)oxy)-N-methyl-N-(4,5,6,7-tetrahydrobenzo[d]thiazol-2-yl)acetamide]
- CC50 at 48 h (in vitro): 124 µM
- EC50 [2]: 12 µM

SMILES: Cc1ccc(N(Cc2ccccc2)C(=O)COc2cccc3c2OC(C)(C)C3)nn1 [Compound 36, N-Benzyl-2-((2,2-dimethyl-2,3-dihydrobenzofuran-7-yl)oxy)-N-(6-methylpyridazin-3-yl)acetamide]
- CC50 at 48 h (in vitro): > 100 µM
- EC50 [2]: 23.6 µM

SMILES: CC1(C)Cc2cccc(OCC(=O)N(Cc3ccccc3)c3nc4c(s3)CCCC4)c2O1 [Compound 37, N-Benzyl-2-((2,2-dimethyl-2,3-dihydrobenzofuran-7-yl)oxy)-N-(4,5,6,7-tetrahydrobenzo[d]thiazol-2-yl)acetamide]
- CC50 at 48 h (in vitro): 0.15 µM
- EC50 [2]: 0.002 µM

SMILES: CC1(C)Cc2cccc(OCC(=O)Nc3nc4c(s3)CCCC4)c2O1 [Compound 195, 2-((2,2-Dimethyl-2,3-dihydrobenzofuran-7-yl)oxy)-N-(4,5,6,7-tetrahydrobenzo[d]thiazol-2-yl)acetamide]
- CC50 at 48 h (in vitro): > 125 µM
- EC50 [2]: 0.053 µM
